Values joined by “and” are separate entries in the source; they are usually repeats but may differ in a detail not shown here. Equal values may be shown once. Marks after values point to notes of the source that are not given here.
How the values were obtained:
[1] = molecular target: T1, Yeast guanylate kinase (S. cerevisiae) (Saccharomyces cerevisiae, UniProt P15454); test: Kinetic constants of yeast guanylate kinase for GCVMP and ACVMP; type: biochemical; details: for Km / Vmax: yeast GMPK, 30° C., pH 7.8, 4 mM ATP
T1 sequence (P15454 1-187): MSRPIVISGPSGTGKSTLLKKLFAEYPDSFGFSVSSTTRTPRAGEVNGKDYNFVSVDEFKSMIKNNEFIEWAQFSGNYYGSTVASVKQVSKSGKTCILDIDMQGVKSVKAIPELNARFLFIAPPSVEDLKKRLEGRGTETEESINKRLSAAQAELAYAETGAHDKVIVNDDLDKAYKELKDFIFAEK
Experimental: The kinetic constants for the yeast GMP kinase purified as described in Example 3 are determined under the following enzymatic assay conditions: The yeast GMP kinase is incubated for 10 min at 30° C. in 100 μl of 50 mM Tris/HCl buffer pH 7.8 containing 4 mM ATP, 10 mM MgCl2, 100 mM KCl, 1 mg/ml BSA (bovine serum albumin) and 5-100 μ[…] (40 nCi/nmol) or 200-3200 μ[…] (40 nCi/nmol). he reaction is stopped by heating the reaction mixture for 3 min at 80° C., 50 μl of 10 mM potassium phosphate buffer pH 3.5 are added, and after centrifugation for 2 min at 10,000×g, 100 μl of supernatant are analysed by high performance liquid chromatography (HPLC) in the following system: for the calculation of the kinetic constants, the quantity of yeast GMP kinase introduced into the enzymatic reaction is adjusted so as to convert at most 10% of the substrate initially introduced. The Michaelis curves are adjusted to the experimental points with the aid of the Grafit software (Sigma). […] For substrates entering into competition, the Vmax/Km constant determines the specificity of the enzyme for these substrates. It is known by the name of “specificity constant” [A. Fersht, Enzyme Structure and Mechanism, 1985, W. H. Fréeman and Co., London].

[2] = molecular target: T2, Human guanylate kinase (erythrocytes) (Homo sapiens, UniProt Q16774); details: human erythrocyte GMPK, published values a, c, cited from earlier work; for Km: b
T2 construct: enzymatic preparations of guanylate kinase and of nucleoside diphosphate kinase of human erythrocytes; host or cells: human erythrocytes
T2 sequence (Q16774 1-197): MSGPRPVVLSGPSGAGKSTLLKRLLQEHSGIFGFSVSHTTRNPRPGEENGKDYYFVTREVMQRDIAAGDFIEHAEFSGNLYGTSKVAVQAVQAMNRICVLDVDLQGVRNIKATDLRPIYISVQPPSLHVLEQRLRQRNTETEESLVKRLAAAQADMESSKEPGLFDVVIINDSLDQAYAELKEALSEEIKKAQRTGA

[3] = molecular target: HSV1-TK and GMPK from S. cerevisiae (Human herpesvirus 1, UniProt P0DTH5); test: TK-GMPK coupling, % of products formed; type: biochemical, herpes simplex virus type 1; S. cerevisiae; details: for % of the products formed, NMP / % of the products formed, NDP: substrate 100 μM
Experimental: (§1) In a preferred coupling mode, the incubation is carried out in 100 μl of 50 mM Tris/HCl buffer pH 7.8, containing 1 mg/ml of BSA (bovine serum albumin), 5 mM ATP, 4 mM MgCl2, 12 mM KCl, 2 mM DTT, 600 μM EDTA, 100 μM [8-3H]-GCV (40 nCi/nmol) or 100 μM [2-3H]-ACV 40 nCi/nmol and various quantities of TK, GuK and NDPK (cf Table 2).

[4] = molecular target: T3, HSV1-TK, GMPK and baker's yeast NDPK (Human herpesvirus 1, UniProt P0DTH5); test: TK-GMPK-NDPK coupling with baker's yeast NDPK; type: biochemical, herpes simplex virus type 1; S. cerevisiae; details: substrate 100 μM
T3 construct: purchased SIGMA

[5] = molecular target: T4, HSV1-TK, GMPK and human (erythrocyte) NDPK (Human herpesvirus 1, UniProt P0DTH5); test: TK-GMPK-NDPK coupling with human erythrocyte NDPK; type: biochemical; details: substrate 100 μM
T4 construct: purchased SIGMA; host or cells: human erythrocytes (NDPK)
Experimental: as §1

[6] = molecular target: T5, HSV1-TK, GMPK and bovine (liver) NDPK (Human herpesvirus 1, UniProt P0DTH5); test: TK-GMPK-NDPK coupling with bovine liver NDPK; type: biochemical; details: substrate 100 μM
T5 construct: purchased SIGMA; host or cells: bovine liver (NDPK)
Experimental: as §1

[7] = molecular target: T6, HSV1-TK/S. cerevisiae GMPK fusion protein (UniProt P0DTH5+P15454, V34A); test: Phosphorylation to diphosphate by TK-GMPK fusion protein; type: biochemical, herpes simplex virus type 1; S. cerevisiae
T6 construct: made in house; host or cells: E. coli BL21 DE3 pXL3098 (pET11a)
T6 sequence (P0DTH5+P15454 with tags, fused parts or gaps P15454:V34A): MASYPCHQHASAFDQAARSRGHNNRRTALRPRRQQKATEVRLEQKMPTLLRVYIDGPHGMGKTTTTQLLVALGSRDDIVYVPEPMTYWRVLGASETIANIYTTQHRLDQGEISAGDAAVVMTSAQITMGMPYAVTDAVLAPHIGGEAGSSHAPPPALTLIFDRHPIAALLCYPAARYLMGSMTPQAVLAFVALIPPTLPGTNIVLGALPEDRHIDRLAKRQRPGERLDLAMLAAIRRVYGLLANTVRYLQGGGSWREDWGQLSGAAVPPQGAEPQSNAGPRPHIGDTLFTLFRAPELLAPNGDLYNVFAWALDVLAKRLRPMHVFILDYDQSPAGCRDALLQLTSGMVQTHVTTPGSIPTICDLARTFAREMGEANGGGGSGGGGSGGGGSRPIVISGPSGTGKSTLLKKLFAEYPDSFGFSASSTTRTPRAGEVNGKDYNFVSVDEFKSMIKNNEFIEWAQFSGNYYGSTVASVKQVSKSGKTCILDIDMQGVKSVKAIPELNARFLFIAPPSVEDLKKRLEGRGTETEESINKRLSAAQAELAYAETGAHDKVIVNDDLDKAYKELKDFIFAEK
Experimental: (§2) The reaction is stopped by heating for 3 min at 80° C.; after centrifugation, 100 μl of incubation product are analyzed in the following system: […]

[8] = molecular target: Mixture wild type TK/GMPK (Human herpesvirus 1, UniProt P0DTH5); type: biochemical, herpes simplex virus type 1; S. cerevisiae; details: Mixture wild type/GMPK 1.66/0.33 μg; GCV 100 μM
Experimental: as §2

Mixture 2-865:H12/GMPK = test: Phosphorylation to diphosphate by mixture of 2-865:H12 and GMPK; type: biochemical
Experimental: The capacity of the TK-GMPK fusion protein to convert GCV or ACV to GCVDP or ACVDP compared with a synthetic mixture of TK and GMPK is determined in the following manner:
as §2

glioma = details: rats having a glioma, HSV1-TK gene expressed, 150 mg/kg doses injected; cited from earlier work
mice = details: mouse, in vivo, 150 mg/kg; cited from earlier work
[9] = TK 10.4 μg, GMPK 7.4 μg, 30 min
[10] = TK 1.3 μg, GMPK 2.5 μg, yeast NDPK 0.75 μg, 60 min
[11] = TK 10.4 μg, GMPK 7.4 μg, yeast NDPK 0.75 μg, 20 min
[12] = TK 10.4 μg, GMPK 7.4 μg, yeast NDPK 1.5 μg, 30 min
[13] = TK 10.4 μg, GMPK 7.4 μg, human NDPK 0.675 μg, 20 min
[14] = TK 10.4 μg, GMPK 7.4 μg, human NDPK 6.75 μg, 30 min
[15] = TK 10.4 μg, GMPK 7.4 μg, bovine NDPK 0.5 μg, 20 min
[16] = TK 10.4 μg, GMPK 7.4 μg, bovine NDPK 5 μg, 30 min
[17] = TK 11.7 μg, GMPK 74 μg, yeast NDPK 1.5 μg, 20 min
[18] = TK 11.7 μg, GMPK 74 μg, yeast NDPK 15 μg, 30 min
[19] = TK 11.7 μg, GMPK 74 μg, human NDPK 6.75 μg, 30 min
[20] = TK 11.7 μg, GMPK 74 μg, bovine NDPK 5 μg, 30 min

## ganciclovir monophosphate [GCVMP]
[1]
  Km: 18 µM
  Vmax: 40 µmol/min/mg
[1]; yeast vs human GMPK
  phosphorylation rate of yeast guanylate kinase relative to human enzyme: twice as high
[2]
  Km: 42 to 54 µM and 40 µM
  Vmax: 20^a μmol/min/mg

## Nc1nc(O)c2ncn(COC(CO)CO)c2n1 [GCV, ganciclovir]
[3]; coupling of HSV1-TK and GMPK from S. cerevisiae
  phosphorylation of ganciclovir to ganciclovir diphosphate: 90%
[3]; TK 1.3 μg, GMPK 2.5 μg, 60 min
  % of the products formed, NMP: 4.4%
[3]; TK 2.6 μg, GMPK 2.5 μg, 30 min
  % of the products formed, NDP: 89.0%
  % of the products formed, NMP: 7.5%
[3]; [9]
  % of the products formed, NDP: 90.8%
  % of the products formed, NMP: 5.3%
[4]; [10]
  % of the products formed, NDP: 13.8%
  % of the products formed, NMP: 3.2%
[4]; [11]
  % of the products formed, NDP: 12.6%
  % of the products formed, NMP: 2.6%
[4]; [12]
  % of the products formed, NDP: 6.9%
  % of the products formed, NMP: 0.9%
  % of the products formed, NTP: 91.1%
[5]; [13]
  % of the products formed, NDP: 90.3%
  % of the products formed, NMP: 6.2%
  % of the products formed, NTP: 1.5%
[5]; [14]
  % of the products formed, NDP: 71.1%
  % of the products formed, NMP: 2.5%
  % of the products formed, NTP: 24%
[6]; [15]
  % of the products formed, NDP: 78.4%
  % of the products formed, NMP: 6.5%
  % of the products formed, NTP: 12.9%
[6]; [16]
  % of the products formed, NDP: 5.8%
  % of the products formed, NMP: 0.6%
  % of the products formed, NTP: 92%
[7]; Fusion 2 μg, GCV 50 μM
  GCVDP formed: 4900** pmmol
[7]; Fusion 2 μg, GCV 100 μM
  GCVDP formed: 8270** pmmol
[7]; compared with coincubation of wild-type TK enzyme and GMPK enzyme
  improvement in phosphorylation by TK-GMPK fusion protein, factor: ≤ 1.8
[8]
  GCVDP formed: 4660** pmmol
Mixture 2-865:H12/GMPK; Mixture 2-865: H12/GMPK 1.66/0.33 μg, GCV 50 μM
  GCVDP formed: 5300** pmmol
glioma
  tumour response: regressions of tumour
mice
  toxicity: highly toxic

## Nc1nc2c(ncn2COCCO)c(=O)[nH]1 [ACV, acyclovir]
[3]; TK 11.7 μg, GMPK 74 μg, 20 min
  % of the products formed, NDP: 54%
  % of the products formed, NMP: 26.0%
[4]; [17]
  % of the products formed, NDP: 60.0%
  % of the products formed, NMP: 13.0%
  % of the products formed, NTP: 8%
[4]; [18]
  % of the products formed, NDP: 4.6%
  % of the products formed, NMP: 1.4%
  % of the products formed, NTP: 81%
[5]; [19]
  % of the products formed, NDP: 80.0%
  % of the products formed, NMP: 1.8%
[6]; [20]
  % of the products formed, NDP: 82.0%
  % of the products formed, NMP: 1.7%
  % of the products formed, NTP: 1.3%
[7]; Fusion 50 μg, ACV 20 μM
  GCVDP formed: 1220** pmmol
[7]; Fusion 50 μg, ACV 50 μM
  GCVDP formed: 2920** pmmol
[7]; Fusion 50 μg, ACV 50 μM Incub 1 h
  GCVDP formed: 6740** pmmol
[7]; Fusion 200 μg, ACV 100 μM
  GCVDP formed: 18500** pmmol
Mixture 2-865:H12/GMPK; Mixture 2-865/H12/GMPK 133/66 μg, ACV 100 μM
  GCVDP formed: 17260** pmmol
Mixture 2-865:H12/GMPK; Mixture 2-865: H12/GMPK 33/17 μg, ACV 20 μM
  GCVDP formed: 2325** pmmol
Mixture 2-865:H12/GMPK; Mixture 2-865: H12/GMPK 33/17 μg, ACV 50 μM
  GCVDP formed: 3680** pmmol
Mixture 2-865:H12/GMPK; Mixture 2-865: H12/GMPK 33/17 μg, ACV 50 μM Incub 1 h
  GCVDP formed: 5890** pmmol

## acyclovir monophosphate [ACVMP]
[1]
  Km: 280 µM
  Vmax: 22 µmol/min/mg
[2]
  Km: 218 µM and 209 to 753 µM and 330 µM
  Vmax: 1.9^a μmol/min/mg and 3.6^c μmol/min/mg

Source: patent US6518062B1, “Enzyme combinations for destroying proliferative cells” (priority 1996, dated 2003)
